Data taken from patent publication US9802921B2, “Fluoromethyl-substituted pyrrole carboxamides iv” (Grünenthal GmbH, priority 2013, dated 2017).

Biological target: T1, Human CaV2.2 channels (Homo sapiens, UniProt Q00975)
T1 construct: expressed in transfected cells
Assay: Fluorescent assay for CaV2.2 channels using potassium depolarization to induce channel opening (FLIPR, Fluo 4)
Type: cell-based
Settings: read-out: Activity Category: %-Inhib (CaV2.2) @3 μM @30 mM KCl; 3 μM test compound; 30 mM KCl as printed; HEK293 cells stably expressing human CaV2.2
Text: In the process, the Ca^2+ influx is quantified in the FLIPR assay with the aid of a Ca^2+-sensitive dye (type Fluo-4, Molecular Probes Europe BV, Leiden, the Netherlands) in a fluorescent imaging plate reader (FLIPR 3, Molecular Devices, Sunnyvale, USA), as described hereinafter.
Human CaV2.2 channels were stably expressed in HEK293 cells together with alpha2-delta and beta subunits of voltage gated calcium channels. In addition, an inwardly rectifying potassium channel (Kir2.3) was stably expressed in these cells to augment control of the cell membrane potential by the concentration of extracellular potassium ions. Raise of the extracellular potassium concentration leads to depolarization of the membrane potential and thus regulates the voltage dependent state of CaV2.2 channels. For preparation, cells were seeded in black poly-D-lysine coated 96-well plates (Becton Dickinson, Biocoat 4640) in 100 μL medium [500 mL DMEM/F-12 plus Glutamax (Invitrogen 31331-093) plus 5.5 mL MEM NEAA 100× (Invitrogen 11140-035) plus 50 mL FBS decomplemented (Invitrogen 10270-106) plus 200 μg/mL Geneticin (Invitrogen 10131-027) plus 50 μg/mL Hygromycin B (Invitrogen 10687-010) plus 2 μg/mL Blasticidin (anti-bl5b Invivo-Gen) plus 0.2 μg/mL Puromycin (A 11138-03)] at a cell density of 30.000 cells per well. Plates were incubated at 37° C. (5% CO2) for 20 to 23 h. On the day of experiment medium was discarded and cells were loaded with Fluo 4 by addition of 100 μL of basic assay buffer (10 mM HEPES, 1 mM KCl, 149 mM NaCl, 0.8 mM CaCl2, 1.7 mM MgCl2, 10 mM Glucose, 0.1% BSA. pH 7.4) containing 2 μM Fluo 4 (Molecular Probes; F-14201), 0.01% pluronic acid (Molecular Probes; P-6866) and 2.5 mM probenecid (Molecular Probes; P36400). Cells were incubated in the dark at 25° C. for 60 min. Then dye containing buffer was discarded and 100 μL basic (1 mM KCl) or alternative (30 mM KCl) assay buffer was added. The alternative assay buffer contained altered concentrations of KCl (30 mM) and NaCl (120 mM) and was used in order to promote the inactivated channel state. After that 25 μL of basic or alternative assay buffer with or without test compound were added and cells were incubated again in the dark at 25° C. for 15 min. Fluorescence intensity was measured on a FLIPR 3 instrument (Molecular Devices Corp., Sunnyvale, Calif.) with excitation at 480 nm and emission at 535 nm. After continuously reading fluorescence for 30 sec, 50 μL of basic assay buffer containing 210 mM KCl (NaCl omitted) were added for depolarization. Peak fluorescent signal intensity was determined and the amplitude of the peak signal, normalized to base line, was used to measure channel inhibition by test compounds.

T1 sequence (Q00975 whole entry): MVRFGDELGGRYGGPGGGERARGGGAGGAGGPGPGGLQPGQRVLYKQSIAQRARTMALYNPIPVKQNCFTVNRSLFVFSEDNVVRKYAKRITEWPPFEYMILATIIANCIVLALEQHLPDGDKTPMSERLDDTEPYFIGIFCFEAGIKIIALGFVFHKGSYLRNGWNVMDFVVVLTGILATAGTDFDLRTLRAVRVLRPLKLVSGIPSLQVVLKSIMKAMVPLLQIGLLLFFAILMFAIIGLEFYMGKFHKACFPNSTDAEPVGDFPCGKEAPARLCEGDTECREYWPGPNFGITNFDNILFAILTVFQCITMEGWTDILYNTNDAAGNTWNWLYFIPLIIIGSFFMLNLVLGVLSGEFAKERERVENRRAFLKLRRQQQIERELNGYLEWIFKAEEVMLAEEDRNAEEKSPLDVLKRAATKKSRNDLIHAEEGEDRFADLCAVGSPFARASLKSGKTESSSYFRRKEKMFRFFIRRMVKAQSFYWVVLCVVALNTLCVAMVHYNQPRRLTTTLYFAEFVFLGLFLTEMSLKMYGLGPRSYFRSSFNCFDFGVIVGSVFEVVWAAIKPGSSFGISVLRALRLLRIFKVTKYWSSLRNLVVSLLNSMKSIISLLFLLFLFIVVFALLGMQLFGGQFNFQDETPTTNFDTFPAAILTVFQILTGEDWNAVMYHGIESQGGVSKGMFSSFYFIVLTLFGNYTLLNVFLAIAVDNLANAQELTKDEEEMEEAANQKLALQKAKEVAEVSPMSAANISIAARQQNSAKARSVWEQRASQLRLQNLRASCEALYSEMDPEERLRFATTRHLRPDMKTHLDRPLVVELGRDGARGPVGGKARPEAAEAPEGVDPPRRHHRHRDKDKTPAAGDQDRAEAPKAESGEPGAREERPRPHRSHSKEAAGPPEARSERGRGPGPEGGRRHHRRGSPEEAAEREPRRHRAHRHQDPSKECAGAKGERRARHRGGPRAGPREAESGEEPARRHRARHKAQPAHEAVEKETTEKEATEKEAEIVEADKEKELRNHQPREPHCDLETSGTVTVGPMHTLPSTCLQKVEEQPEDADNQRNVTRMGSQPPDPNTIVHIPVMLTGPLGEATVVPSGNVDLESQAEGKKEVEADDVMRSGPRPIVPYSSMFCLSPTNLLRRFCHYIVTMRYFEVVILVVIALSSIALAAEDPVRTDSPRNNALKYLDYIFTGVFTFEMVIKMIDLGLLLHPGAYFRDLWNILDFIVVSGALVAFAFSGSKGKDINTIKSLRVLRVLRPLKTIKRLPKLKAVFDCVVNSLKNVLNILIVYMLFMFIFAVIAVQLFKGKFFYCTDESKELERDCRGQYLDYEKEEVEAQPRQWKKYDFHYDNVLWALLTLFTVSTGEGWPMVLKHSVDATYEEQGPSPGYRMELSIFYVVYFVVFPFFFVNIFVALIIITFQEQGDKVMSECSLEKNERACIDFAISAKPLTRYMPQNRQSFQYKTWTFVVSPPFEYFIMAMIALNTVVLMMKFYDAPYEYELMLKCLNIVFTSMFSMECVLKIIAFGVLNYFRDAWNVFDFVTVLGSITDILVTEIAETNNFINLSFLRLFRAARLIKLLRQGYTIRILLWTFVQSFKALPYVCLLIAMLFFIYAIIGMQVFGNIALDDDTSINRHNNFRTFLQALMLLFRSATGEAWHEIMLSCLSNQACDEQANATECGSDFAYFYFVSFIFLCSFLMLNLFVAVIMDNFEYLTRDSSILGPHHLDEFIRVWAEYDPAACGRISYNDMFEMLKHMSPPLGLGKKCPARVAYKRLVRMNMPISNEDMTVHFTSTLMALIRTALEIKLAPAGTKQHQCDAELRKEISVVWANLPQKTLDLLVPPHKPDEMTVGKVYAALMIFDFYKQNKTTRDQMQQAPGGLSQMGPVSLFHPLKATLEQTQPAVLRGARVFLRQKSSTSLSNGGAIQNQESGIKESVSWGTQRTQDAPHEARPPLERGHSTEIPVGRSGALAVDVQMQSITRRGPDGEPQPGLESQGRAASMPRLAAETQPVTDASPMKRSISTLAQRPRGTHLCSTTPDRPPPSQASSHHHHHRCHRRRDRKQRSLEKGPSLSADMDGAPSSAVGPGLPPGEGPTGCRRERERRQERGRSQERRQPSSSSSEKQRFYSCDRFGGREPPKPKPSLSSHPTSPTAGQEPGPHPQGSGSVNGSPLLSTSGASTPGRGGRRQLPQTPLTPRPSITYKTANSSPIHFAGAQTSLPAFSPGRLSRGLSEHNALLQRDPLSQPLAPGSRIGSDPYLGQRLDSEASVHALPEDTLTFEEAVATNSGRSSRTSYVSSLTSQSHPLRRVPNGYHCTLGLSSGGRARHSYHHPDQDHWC
T1 sequence (P54289 25-1103, further chain): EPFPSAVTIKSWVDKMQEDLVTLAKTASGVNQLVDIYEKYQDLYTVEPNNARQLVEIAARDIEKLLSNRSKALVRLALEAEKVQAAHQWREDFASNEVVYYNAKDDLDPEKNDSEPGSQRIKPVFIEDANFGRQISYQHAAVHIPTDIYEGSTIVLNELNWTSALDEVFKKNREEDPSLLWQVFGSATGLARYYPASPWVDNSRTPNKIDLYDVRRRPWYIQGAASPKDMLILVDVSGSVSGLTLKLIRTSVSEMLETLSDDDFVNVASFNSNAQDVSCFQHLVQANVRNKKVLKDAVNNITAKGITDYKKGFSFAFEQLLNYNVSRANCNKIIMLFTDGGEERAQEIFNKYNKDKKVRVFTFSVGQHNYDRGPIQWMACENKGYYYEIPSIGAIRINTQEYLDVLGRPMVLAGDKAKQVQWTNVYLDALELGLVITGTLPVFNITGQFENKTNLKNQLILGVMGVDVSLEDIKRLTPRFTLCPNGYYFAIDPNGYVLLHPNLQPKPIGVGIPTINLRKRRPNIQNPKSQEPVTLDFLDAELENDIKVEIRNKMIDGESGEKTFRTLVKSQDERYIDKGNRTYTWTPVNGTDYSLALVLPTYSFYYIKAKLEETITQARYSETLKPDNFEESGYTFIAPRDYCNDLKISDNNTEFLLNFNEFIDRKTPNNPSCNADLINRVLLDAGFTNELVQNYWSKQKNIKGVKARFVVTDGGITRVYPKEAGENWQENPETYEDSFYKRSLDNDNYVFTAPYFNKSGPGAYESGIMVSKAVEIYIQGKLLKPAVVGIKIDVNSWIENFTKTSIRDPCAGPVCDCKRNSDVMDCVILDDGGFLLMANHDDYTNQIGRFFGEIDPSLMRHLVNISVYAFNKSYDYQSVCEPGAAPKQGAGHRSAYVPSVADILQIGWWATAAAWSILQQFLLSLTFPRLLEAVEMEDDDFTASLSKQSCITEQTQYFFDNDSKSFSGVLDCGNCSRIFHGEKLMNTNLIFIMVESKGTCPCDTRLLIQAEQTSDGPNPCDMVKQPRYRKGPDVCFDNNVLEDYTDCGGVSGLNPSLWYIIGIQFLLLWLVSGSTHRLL
T1 sequence (P54284 whole entry, further chain): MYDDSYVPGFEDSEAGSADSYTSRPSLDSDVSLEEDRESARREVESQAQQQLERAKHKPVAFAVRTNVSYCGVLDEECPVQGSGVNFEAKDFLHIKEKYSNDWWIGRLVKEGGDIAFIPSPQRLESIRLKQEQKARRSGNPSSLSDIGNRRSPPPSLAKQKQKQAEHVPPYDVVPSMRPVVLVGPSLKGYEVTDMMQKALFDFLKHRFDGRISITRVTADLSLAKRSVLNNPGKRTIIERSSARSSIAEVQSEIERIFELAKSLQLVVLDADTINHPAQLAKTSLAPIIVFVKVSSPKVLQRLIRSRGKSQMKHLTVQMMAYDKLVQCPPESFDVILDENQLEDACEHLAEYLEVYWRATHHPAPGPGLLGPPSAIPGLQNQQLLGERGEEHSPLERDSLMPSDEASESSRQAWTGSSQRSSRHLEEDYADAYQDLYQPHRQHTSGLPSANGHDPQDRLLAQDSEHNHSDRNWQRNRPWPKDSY

| SMILES | inhibition at 3 µM [%] |
| --- | --- |
| Cc1cnc(Cn2c(C(=O)N3CCOCC3)c(-c3ccc(Cl)cc3)c(C)c2C(F)(F)F)cn1 [Example 042, [3-(4-Chlorophenyl)-4-methyl-1-[(5-methyl-pyrazin-2-yl)-methyl]-5-(trifluoromethyl)-1H-pyrrol-2-yl]-morpholin-4-yl-methanone] | > 95 |
| Cc1ncc(Cn2c(C(=O)N3CCOCC3)c(-c3ccc(Cl)cc3)c(C)c2C(F)(F)F)cn1 [Example 043, [3-(4-Chlorophenyl)-4-methyl-1-[(2-methyl-pyrimidin-5-yl)-methyl]-5-(trifluoromethyl)-1H-pyrrol-2-yl]-morpholin-4-yl-methanone] | 75 to 95 |
| Cc1c(-c2ccc(Cl)cc2)c(C(=O)N2CCOCC2)n(Cc2ccc(F)cn2)c1C(F)(F)F [Example 044, [3-(4-Chlorophenyl)-1-[(5-fluoro-pyridin-2-yl)-methyl]-4-methyl-5-(trifluoromethyl)-1H-pyrrol-2-yl]-morpholin-4-yl-methanone] | > 95 |
| Cc1cnc(Cn2c(C(=O)N3CCOCC3)c(-c3ccc(Cl)cc3)c(C)c2C(F)(F)F)nc1 [Example 045, [3-(4-Chlorophenyl)-4-methyl-1-[(5-methyl-pyrimidin-2-yl)-methyl]-5-(trifluoromethyl)-1H-pyrrol-2-yl]-morpholin-4-yl-methanone] | > 95 |
| Cc1ccnc(Cn2c(C(=O)N3CCOCC3)c(-c3ccc(Cl)cc3)c(C)c2C(F)(F)F)n1 [Example 046, [3-(4-Chlorophenyl)-4-methyl-1-[(4-methyl-pyrimidin-2-yl)-methyl]-5-(trifluoromethyl)-1H-pyrrol-2-yl]-morpholin-4-yl-methanone] | > 95 |
| Cc1c(-c2ccc(Cl)cc2)c(C(=O)N2CCOCC2)n(Cc2ncccn2)c1C(F)(F)F [Example 047, [3-(4-Chlorophenyl)-4-methyl-1-(pyrimidin-2-yl-methyl)-5-(trifluoromethyl)-1H-pyrrol-2-yl]-morpholin-4-yl-methanone] | > 95 |
| Cc1c(-c2ccc(Cl)cc2)c(C(=O)NC2CC2)n(Cc2ncccn2)c1C(F)(F)F [Example 048, 3-(4-Chlorophenyl)-N-cyclopropyl-4-methyl-1-(pyrimidin-2-yl-methyl)-5-(trifluoromethyl)-1H-pyrrole-2-carboxylic acid amide] | 40 to 75 |
| Cc1c(-c2ccc(Cl)cc2)c(C(=O)N(C)CC(C)(C)C)n(-c2cnccn2)c1C(F)(F)F [Example 049, 3-(4-Chlorophenyl)-N-(2,2-dimethyl-propyl)-N,4-dimethyl-1-pyrazin-2-yl-5-(trifluoromethyl)-1H-pyrrole-2-carboxylic acid amide] | 75 to 95 |
| Cc1c(-c2ccc(Cl)cc2)c(C(=O)N2CC(F)(F)C2)n(-c2cnccn2)c1C(F)(F)F [Example 050, [3-(4-Chlorophenyl)-4-methyl-1-pyrazin-2-yl-5-(trifluoromethyl)-1H-pyrrol-2-yl]-(3,3-difluoro-azetidin-1-yl)-methanone] | 75 to 95 |
| Cc1c(-c2ccc(Cl)cc2)c(C(=O)N2CC(C)(O)C2)n(-c2cnccn2)c1C(F)(F)F [Example 051, [3-(4-Chlorophenyl)-4-methyl-1-pyrazin-2-yl-5-(trifluoromethyl)-1H-pyrrol-2-yl]-(3-hydroxy-3-methyl-azetidin-1-yl)-methanone] | 40 to 75 |
| Cc1c(-c2ccc(Cl)cc2)c(C(=O)N2CCOCC2)n(Cc2cncnc2)c1C(F)(F)F [Example 052, [3-(4-Chlorophenyl)-4-methyl-1-(pyrimidin-5-yl-methyl)-5-(trifluoromethyl)-1H-pyrrol-2-yl]-morpholin-4-yl-methanone] | 40 to 75 |
| Cc1c(-c2ccc(Cl)cc2)c(C(=O)N2CCOCC2)n(Cc2ccc[nH]c2=O)c1C(F)(F)F [Example 053, 3-[[3-(4-Chlorophenyl)-4-methyl-2-(morpholine-4-carbonyl)-5-(trifluoromethyl)-1H-pyrrol-1-yl]-methyl]-1H-pyridin-2-one] | 40 to 75 |
| Cc1c(-c2ccc(Cl)cc2)c(C(=O)N2CCOCC2)n(Cc2cccc(=O)[nH]2)c1C(F)(F)F [Example 054, 6-[[3-(4-Chlorophenyl)-4-methyl-2-(morpholine-4-carbonyl)-5-(trifluoromethyl)-1H-pyrrol-1-yl]-methyl]-1H-pyridin-2-one] | 75 to 95 |
| Cc1c(-c2ccc(Cl)cc2)c(C(=O)N2CCOCC2)n(CCn2ccccc2=O)c1C(F)(F)F [Example 055, 1-[2-[3-(4-Chlorophenyl)-4-methyl-2-(morpholine-4-carbonyl)-5-(trifluoromethyl)-1H-pyrrol-1-yl]-ethyl]-1H-pyridin-2-one] | 40 to 75 |
| Cc1c(-c2ccc(Cl)cc2)c(C(=O)N2CCOCC2)n(Cn2ccccc2=O)c1C(F)(F)F [Example 056, 1-[[3-(4-Chlorophenyl)-4-methyl-2-(morpholine-4-carbonyl)-5-(trifluoromethyl)-1H-pyrrol-1-yl]-methyl]-1H-pyridin-2-one] | 75 to 95 |
| Cc1c(-c2ccc(Cl)cc2)c(C(=O)N2CCOCC2)n(Cc2ncn[nH]2)c1C(F)(F)F [Example 060, [3-(4-Chlorophenyl)-4-methyl-1-(1H-[1,2,4]triazol-3-yl-methyl)-5-(trifluoromethyl)-1H-pyrrol-2-yl]-morpholin-4-yl-methanone] | 40 to 75 |
| Cc1c(-c2ccc(Cl)cc2)c(C(=O)N(C)C(C)C)n(Cc2ncccn2)c1C(F)(F)F [Example 061, 3-(4-Chlorophenyl)-N-isopropyl-N,4-dimethyl-1-(pyrimidin-2-yl-methyl)-5-(trifluoromethyl)-1H-pyrrole-2-carboxylic acid amide] | > 95 |
| Cc1c(-c2ccc(Cl)cc2F)c(C(=O)N2CCOCC2)n(Cc2ncccn2)c1C(F)(F)F [Example 062, [3-(4-Chloro-2-fluoro-phenyl)-4-methyl-1-(pyrimidin-2-yl-methyl)-5-(trifluoromethyl)-1H-pyrrol-2-yl]-morpholin-4-yl-methanone] | > 95 |
| Cc1c(-c2ccc(Cl)cc2F)c(C(=O)N(C)C2CC2)n(Cc2ncccn2)c1C(F)(F)F [Example 063, 3-(4-Chloro-2-fluoro-phenyl)-N-cyclopropyl-N,4-dimethyl-1-(pyrimidin-2-yl-methyl)-5-(trifluoromethyl)-1H-pyrrole-2-carboxylic acid amide] | > 95 |
| Cc1c(-c2ccc(Cl)cc2F)c(C(=O)N(C)C(C)C)n(Cc2ncccn2)c1C(F)(F)F [Example 064, 3-(4-Chloro-2-fluoro-phenyl)-N-isopropyl-N,4-dimethyl-1-(pyrimidin-2-yl-methyl)-5-(trifluoromethyl)-1H-pyrrole-2-carboxylic acid amide] | > 95 |
| Cc1noc(Cn2c(C(F)(F)F)cc(-c3ccc(F)cc3)c2C(=O)N(C)C(C)C)n1 [Example 065, 3-(4-Fluorophenyl)-N-isopropyl-N-methyl-1-[(3-methyl-[1,2,4]oxadiazol-5-yl)-methyl]-5-(trifluoromethyl)-1H-pyrrole-2-carboxylic acid amide] | 75 to 95 |
| Cc1cc(CN(C)C(=O)c2c(-c3ccc(Cl)cc3F)c(C)c(C(F)(F)F)n2Cc2ncccn2)no1 [Example 066, 3-(4-Chloro-2-fluoro-phenyl)-N,4-dimethyl-N-[(5-methyl-isoxazol-3-yl)-methyl]-1-(pyrimidin-2-yl-methyl)-5-(trifluoromethyl)-1H-pyrrole-2-carboxylic acid amide] | > 95 |
| Cc1cc(Cn2c(C(=O)N(C)C(C)C)c(-c3ccc(Cl)cc3)c(C)c2C(F)(F)F)on1 [Example 067, 3-(4-Chlorophenyl)-N-isopropyl-N,4-dimethyl-1-[(3-methyl-isoxazol-5-yl)-methyl]-5-(trifluoromethyl)-1H-pyrrole-2-carboxylic acid amide] | > 95 |
| Cc1cc(Cn2c(C(=O)N(C)C(C)C)c(-c3ccc(Cl)cc3)c(C)c2C(F)(F)F)no1 [Example 068, 3-(4-Chlorophenyl)-N-isopropyl-N,4-dimethyl-1-[(5-methyl-isoxazol-3-yl)-methyl]-5-(trifluoromethyl)-1H-pyrrole-2-carboxylic acid amide] | > 95 |
